According to PubChem BioAssay (NCI):
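Tested at 5 concentrations; 48 h exposure; 96-well plates; endpoints linearly interpolated, else capped at highest concentration. TGI: concentration producing complete growth inhibition.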

Key:
Assay in all cases: NCI-60 cell line screen, 48 h
786-0 renal = system: 786-0 renal
A498 renal = system: A498 renal
A549 NSCLC = system: A549 NSCLC
ACHN renal = system: ACHN renal
CAKI-1 renal = system: CAKI-1 renal
CCRF-CEM leukemia = system: CCRF-CEM leukemia
COLO 205 colon = system: COLO 205 colon
DLD-1 colon = system: DLD-1 colon
DMS 114 small cell lung = system: DMS 114 small cell lung
DMS 273 small cell lung = system: DMS 273 small cell lung
EKVX NSCLC = system: EKVX NSCLC
HCC-2998 colon = system: HCC-2998 colon
HCT-116 colon = system: HCT-116 colon
HCT-15 colon = system: HCT-15 colon
HL-60(TB) leukemia = system: HL-60(TB) leukemia
HOP-18 NSCLC = system: HOP-18 NSCLC
HOP-62 NSCLC = system: HOP-62 NSCLC
HOP-92 NSCLC = system: HOP-92 NSCLC
HT29 colon = system: HT29 colon
IGROV1 ovarian = system: IGROV1 ovarian
K-562 leukemia = system: K-562 leukemia
KM12 colon = system: KM12 colon
KM20L2 colon = system: KM20L2 colon
LOX IMVI melanoma = system: LOX IMVI melanoma
LXFL 529 NSCLC = system: LXFL 529 NSCLC
M14 melanoma = system: M14 melanoma
M19-MEL melanoma = system: M19-MEL melanoma
MALME-3M melanoma = system: MALME-3M melanoma
MOLT-4 leukemia = system: MOLT-4 leukemia
NCI-H226 lung = system: NCI-H226 lung
NCI-H23 lung = system: NCI-H23 lung
NCI-H460 lung = system: NCI-H460 lung
NCI-H522 lung = system: NCI-H522 lung
OVCAR-3 ovarian = system: OVCAR-3 ovarian
OVCAR-4 ovarian = system: OVCAR-4 ovarian
OVCAR-5 ovarian = system: OVCAR-5 ovarian
OVCAR-8 ovarian = system: OVCAR-8 ovarian
RXF 393 renal = system: RXF 393 renal
RXF-631 renal = system: RXF-631 renal
SF-268 CNS = system: SF-268 CNS
SF-295 CNS = system: SF-295 CNS
SF-539 CNS = system: SF-539 CNS
SK-MEL-2 melanoma = system: SK-MEL-2 melanoma
SK-MEL-28 melanoma = system: SK-MEL-28 melanoma
SK-MEL-5 melanoma = system: SK-MEL-5 melanoma
SK-OV-3 ovarian = system: SK-OV-3 ovarian
SN12C renal = system: SN12C renal
SNB-19 CNS = system: SNB-19 CNS
SNB-75 CNS = system: SNB-75 CNS
SNB-78 CNS = system: SNB-78 CNS
SR leukemia = system: SR leukemia
SW-620 colon = system: SW-620 colon
TK-10 renal = system: TK-10 renal
U251 CNS = system: U251 CNS
UACC-257 melanoma = system: UACC-257 melanoma
UACC-62 melanoma = system: UACC-62 melanoma
UO-31 renal = system: UO-31 renal
XF 498 CNS = system: XF 498 CNS
RPMI-8226 leukemia = system: RPMI-8226 leukemia

CCSC1=CC(Cc2ccc(OC)cc2)N(C(=O)OC)C1 (stereo not given)
TGI (786-0 renal): > 100 µM
TGI (A498 renal): > 100 µM
TGI (A549 NSCLC): > 100 µM
TGI (ACHN renal): > 100 µM
TGI (CAKI-1 renal): > 100 µM
TGI (CCRF-CEM leukemia): > 100 µM
TGI (COLO 205 colon): > 100 µM
TGI (DLD-1 colon): > 100 µM
TGI (DMS 114 small cell lung): 73.7 µM
TGI (DMS 273 small cell lung): > 100 µM
TGI (EKVX NSCLC): > 100 µM
TGI (HCC-2998 colon): > 100 µM
TGI (HCT-116 colon): > 100 µM
TGI (HCT-15 colon): > 100 µM
TGI (HL-60(TB) leukemia): 60.1 µM
TGI (HOP-18 NSCLC): > 100 µM
TGI (HOP-62 NSCLC): > 100 µM
TGI (HOP-92 NSCLC): > 100 µM
TGI (HT29 colon): > 100 µM
TGI (IGROV1 ovarian): > 100 µM
TGI (K-562 leukemia): > 100 µM
TGI (KM12 colon): > 100 µM
TGI (KM20L2 colon): > 100 µM
TGI (LOX IMVI melanoma): > 100 µM
TGI (LXFL 529 NSCLC): > 100 µM
TGI (M14 melanoma): > 100 µM
TGI (M19-MEL melanoma): > 100 µM
TGI (MALME-3M melanoma): > 100 µM
TGI (MOLT-4 leukemia): > 100 µM
TGI (NCI-H226 lung): > 100 µM
TGI (NCI-H23 lung): > 100 µM
TGI (NCI-H460 lung): > 100 µM
TGI (NCI-H522 lung): > 100 µM
TGI (OVCAR-3 ovarian): > 100 µM
TGI (OVCAR-4 ovarian): > 100 µM
TGI (OVCAR-5 ovarian): > 100 µM
TGI (OVCAR-8 ovarian): > 100 µM
TGI (RXF 393 renal): > 100 µM
TGI (RXF-631 renal): > 100 µM
TGI (SF-268 CNS): > 100 µM
TGI (SF-295 CNS): > 100 µM
TGI (SF-539 CNS): > 100 µM
TGI (SK-MEL-2 melanoma): > 100 µM
TGI (SK-MEL-28 melanoma): > 100 µM
TGI (SK-MEL-5 melanoma): > 100 µM
TGI (SK-OV-3 ovarian): > 100 µM
TGI (SN12C renal): > 100 µM
TGI (SNB-19 CNS): > 100 µM
TGI (SNB-75 CNS): > 100 µM
TGI (SNB-78 CNS): > 100 µM
TGI (SR leukemia): > 100 µM
TGI (SW-620 colon): > 100 µM
TGI (TK-10 renal): > 100 µM
TGI (U251 CNS): > 100 µM
TGI (UACC-257 melanoma): > 100 µM
TGI (UACC-62 melanoma): > 100 µM
TGI (UO-31 renal): > 100 µM
TGI (XF 498 CNS): > 100 µM

O=C(Nc1cc(Cl)c(Cl)cc1Cl)C(=O)C(C(=O)c1ccccc1)C1OC(=O)c2ccccc21 (stereo not given)
TGI (786-0 renal): > 100 µM
TGI (A498 renal): > 100 µM
TGI (A549 NSCLC): > 100 µM
TGI (ACHN renal): > 100 µM
TGI (CAKI-1 renal): > 100 µM
TGI (CCRF-CEM leukemia): > 100 µM
TGI (COLO 205 colon): > 100 µM
TGI (DLD-1 colon): > 100 µM
TGI (DMS 114 small cell lung): > 100 µM
TGI (DMS 273 small cell lung): > 100 µM
TGI (EKVX NSCLC): > 100 µM
TGI (HCC-2998 colon): > 100 µM
TGI (HCT-116 colon): > 100 µM
TGI (HCT-15 colon): > 100 µM
TGI (HL-60(TB) leukemia): > 100 µM
TGI (HOP-18 NSCLC): > 100 µM
TGI (HOP-62 NSCLC): > 100 µM
TGI (HOP-92 NSCLC): > 100 µM
TGI (HT29 colon): > 100 µM
TGI (IGROV1 ovarian): > 100 µM
TGI (K-562 leukemia): > 100 µM
TGI (KM12 colon): > 100 µM
TGI (KM20L2 colon): > 100 µM
TGI (LOX IMVI melanoma): > 100 µM
TGI (LXFL 529 NSCLC): > 100 µM
TGI (M14 melanoma): > 100 µM
TGI (M19-MEL melanoma): > 100 µM
TGI (MALME-3M melanoma): > 100 µM
TGI (MOLT-4 leukemia): > 100 µM
TGI (NCI-H226 lung): > 100 µM
TGI (NCI-H23 lung): > 100 µM
TGI (NCI-H460 lung): > 100 µM
TGI (NCI-H522 lung): > 100 µM
TGI (OVCAR-3 ovarian): > 100 µM
TGI (OVCAR-4 ovarian): > 100 µM
TGI (OVCAR-5 ovarian): > 100 µM
TGI (OVCAR-8 ovarian): > 100 µM
TGI (RPMI-8226 leukemia): > 100 µM
TGI (RXF 393 renal): > 100 µM
TGI (RXF-631 renal): > 100 µM
TGI (SF-268 CNS): > 100 µM
TGI (SF-295 CNS): > 100 µM
TGI (SK-MEL-28 melanoma): > 100 µM
TGI (SK-OV-3 ovarian): > 100 µM
TGI (SN12C renal): > 100 µM
TGI (SNB-19 CNS): > 100 µM
TGI (SNB-75 CNS): > 100 µM
TGI (SNB-78 CNS): > 100 µM
TGI (SR leukemia): > 100 µM
TGI (SW-620 colon): > 100 µM
TGI (TK-10 renal): > 100 µM
TGI (U251 CNS): > 100 µM
TGI (UACC-257 melanoma): > 100 µM
TGI (UACC-62 melanoma): > 100 µM
TGI (UO-31 renal): > 100 µM
TGI (XF 498 CNS): > 100 µM

CCCCCCC1=NOC(C(c2cc[nH]c2)N(C)[C@H](C(=O)OC)C(C)C)C1 (stereo not given in full)
TGI (786-0 renal): > 100 µM
TGI (A498 renal): > 100 µM
TGI (A549 NSCLC): > 100 µM
TGI (ACHN renal): > 100 µM
TGI (CAKI-1 renal): > 100 µM
TGI (CCRF-CEM leukemia): 53.9 µM
TGI (COLO 205 colon): 32.2 µM
TGI (DLD-1 colon): > 100 µM
TGI (DMS 114 small cell lung): > 100 µM
TGI (DMS 273 small cell lung): > 100 µM
TGI (EKVX NSCLC): > 100 µM
TGI (HCC-2998 colon): > 100 µM
TGI (HCT-116 colon): > 100 µM
TGI (HL-60(TB) leukemia): 63.7 µM
TGI (HOP-18 NSCLC): > 100 µM
TGI (HOP-62 NSCLC): > 100 µM
TGI (HOP-92 NSCLC): > 100 µM
TGI (HT29 colon): > 100 µM
TGI (IGROV1 ovarian): > 100 µM
TGI (K-562 leukemia): > 100 µM
TGI (KM12 colon): 63.6 µM
TGI (KM20L2 colon): > 100 µM
TGI (LOX IMVI melanoma): 74.6 µM
TGI (LXFL 529 NSCLC): > 100 µM
TGI (M14 melanoma): > 100 µM
TGI (M19-MEL melanoma): > 100 µM
TGI (MALME-3M melanoma): > 100 µM
TGI (MOLT-4 leukemia): 62.7 µM
TGI (NCI-H226 lung): > 100 µM
TGI (NCI-H23 lung): > 100 µM
TGI (NCI-H522 lung): 33.9 µM
TGI (OVCAR-3 ovarian): 77.6 µM
TGI (OVCAR-4 ovarian): > 100 µM
TGI (OVCAR-5 ovarian): > 100 µM
TGI (OVCAR-8 ovarian): > 100 µM
TGI (RXF 393 renal): > 100 µM
TGI (RXF-631 renal): > 100 µM
TGI (SF-268 CNS): > 100 µM
TGI (SF-295 CNS): > 100 µM
TGI (SF-539 CNS): > 100 µM
TGI (SK-MEL-2 melanoma): 65.9 µM
TGI (SK-MEL-28 melanoma): > 100 µM
TGI (SK-MEL-5 melanoma): > 100 µM
TGI (SK-OV-3 ovarian): > 100 µM
TGI (SN12C renal): 51.6 µM
TGI (SNB-19 CNS): > 100 µM
TGI (SNB-75 CNS): > 100 µM
TGI (SNB-78 CNS): 87.1 µM
TGI (SR leukemia): 91.6 µM
TGI (SW-620 colon): 68 µM
TGI (TK-10 renal): > 100 µM
TGI (U251 CNS): > 100 µM
TGI (UACC-257 melanoma): > 100 µM
TGI (UACC-62 melanoma): > 100 µM
TGI (UO-31 renal): > 100 µM
TGI (XF 498 CNS): > 100 µM
